This is an account of results in US5468633A, “Human endothelin converting enzyme obtained from blood or placenta” (Nisshin Flour Milling Co., Ltd., priority 1993, dated 1995).

The subject of the experiment is endothelin converting enzyme. The experiment is described as follows: Effects of various inhibitors on the activity of converting big endothelin-1 to endothelin-1 (residual enzymatic activity). The note with it: 37° C., 30 minutes preincubation, pH 7.0, untreated enzyme = 100. The class given is biochemical, human. As to the method:
15 μl of a 20 nmol/ml big endothelin-1 solution was added to 0.3 ml of an enzyme solution (10 mM tris-hydrochloric acid-0.15M sodium chloride buffer; pH 7.0), and the mixture was reacted at 37° C. for 6 hours. After completion of the reaction, 6 μl of a 0.1M EDTA solution was added to terminate the reaction.
Subsequently, the resultant endothelin-1 was assayed according to a sandwich enzyme immunoassay (EIA) method. An enzymatic activity of converting 1 pmol of big endothelin-1 to endothelin-1 per hour under the above-described reaction conditions is termed 1 U (unit).
A sample and an endothelin standard solution of a predetermined concentration were respectively applied to a 96-hole microplate on which anti-endothelin monoclonal antibody had been immobilized to thereby cause the reaction. After washing the microplate, peroxidase-labeled anti-endothelin polyclonal antibody was added to thereby cause the reaction. After washing the microplate, activity of bound peroxidase was assayed. Endothelin-1 in the sample was assayed based on the calibration curve drawn by using endothelin standard solutions having a predetermined concentration of endothelin.
The enzyme of the invention was tested for the effects of various inhibitors against the activity of converting big endothelin-1 to endothelin-1.
The enzyme was incubated in 0.3 ml of a reaction solution (10 mM tris-hydrochloric acid-0.15M sodium chloride buffer; pH 7.0) containing various inhibitors at 37° C. for 30 minutes, and the residual enzymatic activity was measured in the above-described manner. Residual activities in the presence of various inhibitors are shown in Table 1 as relative activity taking the activity of untreated enzyme as 100.

SMILES strings stand for the structures.

As to `CC(C)C[C@H](NC(=O)[C@@H](NC(=O)N[C@@H](Cc1ccccc1)C(=O)O)[C@@H]1CCN=C(N)N1)C(=O)N[C@H](C=O)Cc1ccccc1` [Chymostatin], the “Relative Activity (%)” value (inhibitor 0.01 mM) is reported as 20%.
Consider `O=S(=O)(F)Cc1ccccc1` [Phenylmethanesulfonyl fluoride], for which the “Relative Activity (%)” value (inhibitor 1 mM) came to 7%.
Consider `CC(C)C[C@H](NP(=O)(O)O[C@@H]1O[C@@H](C)[C@H](O)[C@@H](O)[C@H]1O)C(=O)N[C@@H](Cc1c[nH]c2ccccc12)C(=O)O` [Phosphoramidon], for which, for the setting “inhibitor 0.1 mM”, the “Relative Activity (%)” value is 0%.
As to `O=C(O)CNC(=O)C(CS)Cc1ccccc1` (stereo not shown) [Thiorphan], the “Relative Activity (%)” value (inhibitor 0.1 mM) amounted to 0%.
